Patent US20220354811A1, “METHODS AND COMPOSITIONS FOR MODULATING MACROPHAGES POLARIZATION” (INSERM (INSTITUT NATIONAL DE LA SANTÉ ET DE LA RECHERCHE …, priority 2019, published 2022)

Experiments:
human primary monocytes = experiment: CSF-1-induced monocyte differentiation into macrophages (flow cytometry, CD71/CD163 and CD16/CD163 double positive cells); type: cell-based
Excerpt: FIG. 1. […] (A) Macrophagic differentiation of monocytes from 3 different healthy donors was examined by 3-color flow cytometric analysis. The results are expressed as percentage of CD71/CD163 or CD16/CD163 double positive cells and represent the mean±SD of 3 independent experiments performed in duplicate. (B) Cell death from 3 different healthy donors was examined by flow cytometry analysis. The results are expressed as percentage of AnnexinV/DAPI double positive cells and represent the mean±SD of 3 independent experiments performed in duplicate. n.s. denotes not statistically significant according to a paired student t test. *P<0.05, **P<0.01, ***P<0.001 according to a paired student t test (versus d2).
FIG. 2. […] Macrophagic differentiation of monocytes from 3 different healthy donors was examined by 3-color flow cytometric analysis. The results are expressed as percentage of CD71/CD163 or CD16/CD163 double positive cells and represent the mean±SD of 3 independent experiments performed in duplicate. n.s. denotes not statistically significant according to a paired student t test. *P<0.05, **P<0.01, ***P<0.001 according to a paired student t test (versus d2).
Human peripheral […] were obtained from healthy donors with informed consent following the Declaration of Helsinki according to recommendations of an independent scientific review board. The project has been validated by The Etablissement Francais du Sang, the French national agency for blood collection (protocol N°ALM/PLER/FO/001). Blood samples were collected using ethylene diamine tetraacetic acid-containing tubes. Mononucleated cells were first isolated using Ficoll Hypaque (Eurobio, CMSMSL0101). Then, we used the autoMACS® Pro Separator (Miltenyi, France) to perform cell enrichment. An initial positive selection, which included antibody targeting CD14, was used for monocyte enrichment (Miltenyi, 130-050-201). Purified monocytes from human were grown in RPMI 1640 medium with glutamax-I (Life Technologies, 61870044) supplemented with 10% (vol/vol) foetal bovine serum (Life Technologies). Macrophage differentiation was induced by adding into the culture medium 100 ng/mL CSF-1 and was visualized using standard optics (20x/0.35 Ph1) equipped with an AxioCam ERc camera (Zeiss, France). Phase images of the cultures were recorded with the Zen 2 software (Zeiss).
To analyze the macrophagic differentiation of monocytes, the cells were washed with ice-cold phosphate buffered saline (PBS, Life Technologies, 14190169), incubated at 4° C. for 10 min in PBS/bovine serum albumin (BSA 0.5%, Dutscher, 871002) with anti-CD16, anti-CD71 and anti-CD163 or isotype controls (Miltenyi and BD Biosciences, catalog numbers were 130-113-396, 130-097-628 and 551374). Finally, the cells were washed and fixed in 2% paraformaldehyde (EMS, 15710). To perform macrophage polarization, purified monocytes were plated at 0.3×10^6 per mL in RPMI 1640 medium with glutamax-I supplemented with 10% (vol/vol) fetal bovine serum plus CSF-1 for 5+2 days to differentiate into M0 macrophages. 20 ng/mL IL-4 (Miltenyi, 130-094-117) was added after 5 days of differentiation for two days to polarize into M2-macrophages. […] Fluorescence was measured with a MACSQuant® Analyzer (Miltenyi, Paris, France). […] Fluorescence was measured with a MACSQuant® Analyzer (Miltenyi, Paris, France). […]

caspase 3 = target: T1, caspase 3 (Homo sapiens, UniProt P42574); experiment: Recombinant caspase-3 activity in vitro (Ac-DEVD-AMC substrate); type: biochemical; parameters: using active recombinant proteins of caspase-8 and caspase-3; purchased Enzo life sciences ALX-201-059; conditions: recombinant caspase-3, Ac-DEVD-AMC
T1 sequence (P42574 29-175 limits assumed): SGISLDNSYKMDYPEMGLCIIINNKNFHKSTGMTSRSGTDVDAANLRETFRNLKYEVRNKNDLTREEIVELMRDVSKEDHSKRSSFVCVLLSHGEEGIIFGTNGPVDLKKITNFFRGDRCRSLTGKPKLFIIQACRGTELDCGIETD
T1 sequence (P42574 176-277 limits assumed): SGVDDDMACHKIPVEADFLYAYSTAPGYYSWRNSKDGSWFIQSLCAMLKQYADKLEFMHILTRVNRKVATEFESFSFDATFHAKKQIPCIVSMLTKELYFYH
Excerpt: FIG. 4. […] (A) Measures of caspase-8 activity (IETD-AMC). IETD-CHO treatment is used as positive control in the in vitro assay. The results are expressed as A.U./min and represent the mean of 3 independent experiments realized in duplicate (B) Measures of caspase-3 activity (DEVD-AMC). DEVD-CHO is used as positive control in the in vitro assay. The results are expressed as A.U./min and represent the mean of 3 independent experiments realized in duplicate. Human CSF-1 was purchased from Miltenyi (130-096-493). […] Mouse caspase-8 was from R&D Systems (AF705). HRP-conjugated rabbit anti-goat was purchased from Dako ([…]) and HRP-conjugated goat anti-rabbit was from Cell Signaling (5127). Active recombinant caspase-8 (ALX-201-062) and -3 (ALX-201-059) were from Enzo life sciences. […] Each assay (in triplicate) was performed with 10 μg of protein prepared from control or stimulated cells. […] Enzyme activities were expressed in arbitrary units (A.U.) per min and per mg of proteins. The same protocol was used with 0.25 units of active recombinant caspase-8 (Enzo, ALX-201-062) or -3 (Enzo, ALX-201-059) in each triplicate.

SMILES	concentrations with strong inhibitory effect on macrophagic differentiation (human primary monocytes; CSF-1 2 days, Emricasan added at day 0, three different donors) [µM]	concentration range that efficiently inhibited monocyte differentiation (human primary monocytes; same-experiment comparison, added only one time, CSF-1 2 days) [µM]	IC50 (caspase 3) [nM]	concentration of maximal inhibition of caspase-3 (caspase 3) [µM]	concentration range of dose-dependent inhibition of macrophagic differentiation (human primary monocytes; added at day 0 only, inhibition weak compared to Emricasan) [µM]	concentrations with significant inhibitory effect on monocyte differentiation (human primary monocytes; only when added twice (day 0 and day 1), several donors) [µM]	concentration necessary to achieve inhibition identical to Emricasan (human primary monocytes; same-experiment comparison, 2 successive treatments (days 0 and 1)) [µM]
C[C@H](NC(=O)C(=O)Nc1ccccc1C(C)(C)C)C(=O)N[C@@H](CC(=O)O)C(=O)COc1c(F)c(F)cc(F)c1F [Emricasan, (S)-3-((S)-2-(2-((2-(tert-Butyl)phenyl)amino)-2-oxoacetamido)propanamido)-4-oxo-5-(2,3,5,6-tetrafluorophenoxy)pentanoic acid]	1 to 2	1.5 to 2.5	~500	10	–	–	–
CC(C)[C@H](NC(=O)c1ccc2ccccc2n1)C(=O)N[C@@H](CC(=O)O)C(=O)COc1c(F)cccc1F [Q-VD-OPh]	–	–	~500	10	75 to 125	100 to 125	100
